We go through four molecules from US20240398790A1 (ABBVIE INC., priority 2021, published 2024).

Data set [1] has as its system adult subjects with active ankylosing spondylitis (AS) who had an inadequate response to biologic disease-modifying anti-rheumatic drug therapy (bDMARD-IR). As to the kind of experiment: SELECT AXIS 2 Study 1, Phase 3 placebo-controlled, efficacy at Week 14. In kind it is in vivo, human.
Data set [2] deals with bDMARD-naïve patients with AS who had an inadequate response to non-steroidal anti-inflammatory drugs (NSAIDs). As to conditions: cited from earlier work.
The subject of data set [3] is adult subjects with active ankylosing spondylitis (AS) who had an inadequate response to biologic disease-modifying anti-rheumatic drug therapy (bDMARD-IR). As to conditions: human, in vivo.
For data set [4] the test system is unchanged. Put plainly: SELECT AXIS 2 Study 1, safety up to Week 14.
The test system of the next data set is AS. The settings on record: literature; cited from earlier work.
Setting [5] is: AESI up to Week 14, N = 211, listed as Upadacitinib.
[6] abbreviates: AESI up to Week 14, N = 211, listed as upadacitinib freebase.
Setting [7] is: CTCAE V4, Double-Blind Period (Week 14).
The mark [8] stands for this setting: up to Week 14, N = 211, listed as RINVOQ.

In the case of `CC[C@@H]1CN(C(=O)NCC(F)(F)F)C[C@@H]1c1cnc2cnc3[nH]ccc3n12` [upadacitinib, (3S,4R)-3-ethyl-4-(3H-imidazo[1,2-a]pyrrolo[2,3-e]pyrazin-8-yl)-N-(2,2,2-trifluoroethyl)pyrrolidine-1-carboxamide], in data set [1], the “AS QoL, UPA-PBO” value is recorded as −3.07; the “ASDAS(CRP) Low Disease Activity, UPA-PBO” value was 34.0; the “ASDAS(CRP), UPA-PBO” value is on record as −1.02; the “BASFI (Function), UPA-PBO” value is reported as −1.17. For the same molecule, in data set [1], the “BASMI (Mobility), UPA-PBO” value is reported as −0.32; the “MASES (Enthesitis)” value is given as −2.6; the “MASES (Enthesitis), UPA-PBO” value is listed as −1.5; the “MRI Spine SPARCC, UPA-PBO” value is reported as −3.90. In addition, in data set [1], the “Nocturnal Back Pain, UPA-PBO” value is −1.7 and the “Total Back Pain, UPA-PBO” value is recorded as −1.53. In addition, in data set [1] (15 mg), the “AS QoL” value is given as −5.10, the “ASDAS(CRP)” value is reported as −1.52, the “BASFI (Function)” value is −2.26 and the “BASMI (Mobility)” value is reported as −0.48. For the same molecule, in data set [1] (15 mg), the “MRI Spine SPARCC” value is −3.95, the “Nocturnal Back Pain” value is reported as −3.2, the “Total Back Pain” value is given as −3.00 and the “onset of effect in ASAS40” value was 4 Week. In addition, the “ASDAS(CRP) Low Disease Activity” value in data set [1] (15 mg QD, Week 14, NRI-MI) is on record as 44.1%. Besides, in data set [2] (SELECT-AXIS 1, Week 14), the “ASAS40 response at Week 14 (primary endpoint) versus placebo” value is recorded as “significantly greater achievement”. Further, the “efficacy once achieved at Week 14, over time” value in data set [2] (SELECT-AXIS 1, up to and including Week 64) is recorded as “sustained or improved over time”. Moreover, the “Opportunistic infection excluding tuberculosis and herpes zoster” value in data set [3] is 0 (0.0) n (%). Moreover, the “COVID-19 related AE, %” value in data set [3] (14 weeks) is recorded as “(5.7) %”. Moreover, in data set [4] (15 mg QD, up to Week 14, N = 211), the “Adverse event (AE), %” value was “(40.8) %”. Besides, in data set [4] (15 mg, through week 14), the “Serious infections, proportion of patients” value is 2.4% and the “herpes zoster, proportion of patients” value turned out to be 0.9%. In addition, in data set [4] (AESI up to Week 14, N = 211), the Active tuberculosis was 0 (0.0) n (%), the Anemia is 3 (1.4) n (%), the Hepatic disorder is 6 (2.8) n (%) and the Herpes zoster was 2 (0.9) n (%). Moreover, in data set [4] (AESI up to Week 14, N = 211), the Infection is on record as 31 (14.7) n (%), the Lymphoma is 0 (0.0) n (%), the Lymphopenia is 1 (0.5) n (%) and the Malignancy entry is “No malignancy”. Further, in data set [4] (AESI up to Week 14, N = 211), the “Malignancy other than NMSC” value is listed as 0 (0.0) n (%), the Neutropenia is on record as 6 (2.8) n (%), the “Non-melanoma skin cancer (NMSC)” value is given as 0 (0.0) n (%) and the Renal dysfunction is 0 (0.0) n (%). For the same molecule, the Serious infection in data set [4] (AESI up to Week 14, N = 211) is 5 (2.4) n (%). Besides, in data set [4] (setting [5]), the “Adjudicated MACE” value is on record as 0 (0.0) n (%), the Adjudicated gastrointestinal perforation was 0 (0.0) n (%), the “Adjudicated venous thromboembolic events” value is 0 (0.0) n (%) and the Malignancy is recorded as 0 (0.0) n (%). Moreover, in data set [4] (setting [6]), the “Adjudicated MACE” value is on record as “no events”, the Adjudicated gastrointestinal perforation entry is listed as “no events”, the “Adjudicated venous thromboembolic events” value is on record as “no events” and the Malignancy result was “no events”. In addition, in data set [4] (setting [7]), the “ALT (U/L) Grade 4 (>20.0 xULN)” value is recorded as 0/211, the “AST (U/L) Grade 4 (>20.0 xULN)” value was 0/211, the “Creatinine (umol/L) Grade 3 (>3.0-6.0 xULN or >3.0 xBaseline)” value was 0/211 and the “Creatinine (umol/L) Grade 4 (>6.0 xULN)” value was 0/211. Besides, in data set [4] (setting [7]), the “Hemoglobin (g/L) Grade 3 (<80)” value is on record as 0/211, the “Lymphocytes (10^9/L) Grade 4 (<0.2)” value was 0/211 and the “Neutrophils (10^9/L) Grade 4 (<0.5)” value is 0/211. Besides, the safety profile entry in data set [4] (Phase 3 AS bDMARD-IR study) is recorded as “no new risks were identified”. In addition, the “AE with reasonable possibility of being related to study treatment, %” value in data set [4] (as assessed by investigator, up to Week 14, N = 211) is recorded as “(17.1) %”. Also, the “hepatic disorders reported, nature” value in data set [4] (up to Week 14) is reported as “mild or moderate transaminase elevations”. Also, in data set [4] (up to Week 14, N = 211), the “AE leading to death, %” value is on record as “(0.0) %”; the “AE leading to withdrawal of study treatment, %” value is given as “(0.0) %”; the “All deaths, %” value is on record as “(0.0) %”; the “Serious AE, %” value is reported as “(2.8) %”. In data set [4] (up to Week 14, N = 211), the “Severe AE, %” value is recorded as “(3.3) %”. Moreover, in data set [4] (setting [8]), the “AE leading to withdrawal of study treatment, %” value came to 0% and the “Serious AE, %” value is recorded as 2.8%.
For tocilizumab: IL-6 inhibitor, the “efficacy achieved in AS” value with AS is recorded as “low efficacy”.
Take ustekinumab: IL-12/23 inhibitor: the “efficacy achieved in AS” value in the data set on AS is “low efficacy”.

B1: sarilumab: IL-6 inhibitor (antibody, chains of the INN, looked up, V domains shown)
VH: EVQLVESGGGLVQPGRSLRLSCAASRFTFDDYAMHWVRQAPGKGLEWVSGISWNSGRIGYADSVKGRFTISRDNAENSLFLQMNGLRAEDTALYYCAKGRDSFDIWGQGTMVTVSS
VL: DIQMTQSPSSVSASVGDRVTITCRASQGISSWLAWYQQKPGKAPKLLIYGASSLESGVPSRFSGSGSGTDFTLTISSLQPEDFASYYCQQANSFPYTFGQGTKLEIK
In the case of B1, the “efficacy achieved in AS” value in the data set with AS is on record as “low efficacy”.
